Residues, ends and D or L forms follow the SMILES beside them. *: point of attachment. Cbz = O=C(OCc1ccccc1)*
Assays:
[1] = test system: RAW264.7; assay: Cytotoxicity against mouse RAW264.7 cells after 18 hrs by MTS assay; assay type: cell-based; settings: raw264.7, 18 h
[2] = test system: SW480; assay: Cytotoxicity against human SW480 cells after 48 hrs by MTT assay; assay type: functional, cell-based; settings: SW480, 48 h
[3] = test system: RAW264.7; assay: Antiinflammatory activity in mouse RAW264.7 cells assessed as inhibition of LPS-induced nitric oxide production after 18 hrs by Griess method; assay type: functional, cell-based; settings: RAW264.7, 18 h
[4] = test system: A549; assay: Cytotoxicity against human A549 cells after 48 hrs by MTT assay; assay type: functional, cell-based; settings: A549, 48 h
[5] = test system: MCF7; assay: Cytotoxicity against human MCF7 cells after 48 hrs by MTT assay; assay type: functional, cell-based; settings: MCF7, 48 h
[6] = test system: SMMC-7721; assay: Cytotoxicity against human SMMC7721 cells after 48 hrs by MTT assay; assay type: functional, cell-based; settings: SMMC-7721, 48 h
[7] = test system: HL-60; assay: Cytotoxicity against human HL60 cells after 48 hrs by MTT assay; assay type: functional, cell-based; settings: HL-60, 48 h

C[C@@H]1[C@@H]2C[C@H](O)[C@H]3[C@]45CCCC(C)(C)[C@H]4[C@H](O)[C@](O)(OC5)[C@@]3([C@@H]1O)[C@@H]2O
Activity [1]: Non-toxic
IC50 [2]: > 10 µM
IC50 [3]: > 25 µM
IC50 [4]: > 10 µM
IC50 [5]: > 10 µM
IC50 [6]: > 10 µM
IC50 [7]: > 10 µM

C[C@@H]1[C@@H]2CC[C@H]3[C@]45CCCC(C)(C)[C@H]4[C@H](O)[C@](O)(OC5=O)[C@@]3([C@@H]1O)[C@@H]2O
Activity [1]: Non-toxic
IC50 [2]: > 10 µM
IC50 [3]: > 25 µM
IC50 [4]: > 10 µM
IC50 [5]: > 10 µM
IC50 [6]: > 10 µM
IC50 [7]: > 10 µM

C=C1[C@@H](O)[C@@]23C(=CC[C@@H]1[C@H]2O)[C@@]12CO[C@@]3(O)[C@@H](O)[C@@H]1C(C)(C)CC[C@@H]2O
Activity [1]: Non-toxic
IC50 [2]: > 10 µM
IC50 [3]: > 25 µM
IC50 [4]: > 10 µM
IC50 [5]: > 10 µM
IC50 [6]: > 10 µM
IC50 [7]: > 10 µM

C=C1C(=O)[C@]23C[C@H]1CC=C2[C@@]12CO[C@@]3(O)[C@@H](O)[C@@H]1C(C)(C)CC[C@@H]2O
Activity [1]: Non-toxic
IC50 [2]: 3.4 µM
IC50 [3]: 2 µM
IC50 [4]: 4.6 µM
IC50 [5]: 3.3 µM
IC50 [6]: 3.5 µM
IC50 [7]: 8.8 µM

C=C1[C@H]2C[C@@H]3OC(=O)[C@@H]4C(C)(C)CC[C@@H]5OC(=O)[C@](C2)([C@@H]1O)[C@@H]3[C@]54C=O
Activity [1]: Non-toxic
IC50 [2]: > 10 µM
IC50 [3]: 2 µM
IC50 [4]: > 10 µM
IC50 [5]: > 10 µM
IC50 [6]: > 10 µM
IC50 [7]: 6.1 µM

C=C1C(=O)[C@]23[C@H](O)[C@H]1C[C@@H](O)[C@H]2[C@]12CCCC(C)(C)[C@H]1[C@H](O)[C@@]3(O)OC2
Activity [1]: Non-toxic
IC50 [2]: 2.5 µM
IC50 [3]: 1.7 µM
IC50 [4]: 8.6 µM
IC50 [5]: 5.1 µM
IC50 [6]: 4.5 µM
IC50 [7]: 3.5 µM

C=C1C(=O)[C@]23C[C@H]1CC[C@H]2[C@@]12CO[C@]3(O)[C@@H](O)[C@@H]1C(C)(C)CC[C@@H]2O
Activity [1]: Non-toxic
IC50 [2]: 3.2 µM
IC50 [3]: 3.4 µM
IC50 [4]: 5.6 µM
IC50 [5]: 4.2 µM
IC50 [6]: 5.9 µM
IC50 [7]: 7.9 µM

C=C1[C@@H](O)[C@]23[C@H](O)[C@H]1CC[C@H]2[C@@]12C(=O)O[C@]3(O)[C@@H](O)[C@@H]1C(C)(C)CC[C@@H]2O
Activity [1]: Non-toxic
IC50 [3]: 6.1 µM

C=C1C(=O)[C@]23[C@H](O)[C@H]1CC[C@H]2[C@@]12[C@@H](OC)O[C@]3(O)[C@@H](O)[C@@H]1C(C)(C)CC[C@@H]2O
Activity [1]: Non-toxic
IC50 [2]: 9.4 µM
IC50 [3]: > 25 µM
IC50 [4]: > 10 µM
IC50 [5]: > 10 µM
IC50 [6]: > 10 µM
IC50 [7]: 7 µM

C=C1[C@@H](O)[C@]23[C@H](O)[C@H]1CC[C@H]2[C@@]12C(OC)O[C@]3(O)[C@@H](O)[C@@H]1C(C)(C)CC[C@@H]2O (stereo partly specified)
Activity [1]: Non-toxic
IC50 [2]: > 10 µM
IC50 [3]: > 25 µM
IC50 [4]: > 10 µM
IC50 [5]: > 10 µM
IC50 [6]: > 10 µM
IC50 [7]: 5.3 µM

C=C1C(=O)[C@@]23[C@@H]4OC(C)(C)O[C@@]25OC[C@]2(CCCC(C)(C)[C@H]2[C@@H]5O)[C@@H]3[C@@H](O)C[C@@H]14
Activity [1]: Non-toxic
IC50 [2]: 2 µM
IC50 [3]: 1.1 µM
IC50 [4]: 3.4 µM
IC50 [5]: 1.8 µM
IC50 [6]: 2.6 µM
IC50 [7]: 1.5 µM

C=C1[C@H]2CC3=C4[C@](C2)(C(=O)O[C@H]2CCC(C)(C)[C@@H]([C@@H](O)O3)[C@]42C=O)[C@@H]1OC(C)=O
Activity [1]: Non-toxic
IC50 [2]: > 10 µM
IC50 [3]: > 25 µM
IC50 [4]: > 10 µM
IC50 [5]: > 10 µM
IC50 [6]: > 10 µM
IC50 [7]: > 10 µM

C=C1[C@H]2CC[C@@H]3[C@](C2)(C(=O)O[C@@H]2CCC(C)(C)[C@H]4[C@H](O)O[C@@H](OC)[C@@]432)[C@@H]1OC(C)=O
Activity [1]: Non-toxic
IC50 [2]: > 10 µM
IC50 [3]: > 25 µM
IC50 [4]: > 10 µM
IC50 [5]: > 10 µM
IC50 [6]: > 10 µM
IC50 [7]: > 10 µM

C=C1C(=O)[C@]23[C@H](OC(C)=O)[C@H]1C[C@H](OC(C)=O)[C@H]2[C@]12CCCC(C)(C)[C@H]1[C@H](O)[C@]3(O)OC2
Activity [1]: Non-toxic
IC50 [2]: 3.2 µM
IC50 [3]: 6.3 µM
IC50 [4]: > 10 µM
IC50 [5]: > 10 µM
IC50 [6]: > 10 µM
IC50 [7]: 4.6 µM

C=C1C(=O)[C@]23[C@H](O)[C@H]1CC[C@H]2[C@@]12[C@@H](OCCCC)O[C@@]3(O)[C@@H](O)[C@@H]1C(C)(C)CC[C@@H]2O (mixture of isomers)
Activity [1]: Non-toxic
IC50 [2]: 2.8 µM
IC50 [3]: 1.5 µM
IC50 [4]: 3.9 µM
IC50 [5]: 2.6 µM
IC50 [6]: 3.2 µM
IC50 [7]: 1.2 µM

C=C1C(=O)[C@]23[C@H](O)[C@H]1CC[C@H]2[C@@]12[C@H](OCC)O[C@@]3(O)[C@@H](O)[C@@H]1C(C)(C)CC[C@@H]2O (relative stereo)
Activity [1]: Non-toxic
IC50 [2]: 7.8 µM
IC50 [3]: 3.9 µM
IC50 [4]: > 10 µM
IC50 [5]: 8.4 µM
IC50 [6]: > 10 µM
IC50 [7]: 5.9 µM

C=C1[C@H]2C[C@H](O)[C@@H]3[C@](C2)(C(=O)O[C@@H]2CCC(C)(C)[C@H]4[C@H](O)O[C@H](OC)[C@@]432)[C@@H]1OC(C)=O (relative stereo)
Activity [1]: Non-toxic
IC50 [2]: 3.3 µM
IC50 [3]: 1.5 µM
IC50 [4]: > 10 µM
IC50 [5]: 3.5 µM
IC50 [6]: > 10 µM
IC50 [7]: 4.3 µM

C=C1C(=O)[C@]23[C@H](O)[C@H]1CC[C@H]2[C@@]12CO[C@@]3(O)[C@@H](O)[C@@H]1C(C)(C)CC[C@@H]2OC(C)=O [LASIOKAURIN]
Activity [1]: Non-toxic
IC50 [2]: 2.4 µM
IC50 [3]: 1.9 µM
IC50 [4]: 6.7 µM
IC50 [5]: 2.5 µM
IC50 [6]: 2.7 µM
IC50 [7]: 1.8 µM

CC(C)C[C@@H](C=O)NC(=O)[C@H](CC(C)C)NC(=O)[C@H](CC(C)C)NC(=O)OCc1ccccc1 [MG-132] (Cbz-Leu-Leu-Leu-aldehyde)
Activity [1]: Non-toxic
IC50 [3]: 0.1 µM

C=C1C(=O)[C@]23[C@H](O)[C@H]1CC[C@H]2[C@@]12CO[C@]3(O)[C@@H](O)[C@@H]1C(C)(C)CC[C@@H]2O [ORIDONIN]
Activity [1]: Non-toxic
IC50 [2]: > 10 µM
IC50 [3]: 5.2 µM
IC50 [4]: > 10 µM
IC50 [5]: > 10 µM
IC50 [6]: > 10 µM
IC50 [7]: 2.5 µM

CC(=O)O[C@H]1C(=O)[C@@]2(C)[C@H]([C@H](OC(=O)c3ccccc3)[C@]3(O)C[C@H](OC(=O)[C@H](O)[C@@H](NC(=O)c4ccccc4)c4ccccc4)C(C)=C1C3(C)C)[C@]1(OC(C)=O)CO[C@@H]1C[C@@H]2O [PACLITAXEL]
IC50 [2]: 0.04 µM
IC50 [5]: < 0.008 µM
IC50 [6]: < 0.008 µM
IC50 [7]: < 0.008 µM

C=C1C(=O)[C@]23[C@H](O)[C@H]1CC[C@H]2[C@@]12C(OC)O[C@@]3(O)[C@@H](O)[C@@H]1C(C)(C)CC[C@H]2O (stereo partly specified) [RABDOTERNIN E]
Activity [1]: Non-toxic
IC50 [2]: 4.1 µM
IC50 [3]: 2.3 µM
IC50 [4]: > 10 µM
IC50 [5]: > 10 µM
IC50 [6]: > 10 µM
IC50 [7]: 2.6 µM
